Consider two compounds from paper PMC13233288, “Spider venom peptides Ht1a and Gg1a are toxic to honeybee parasite Varroa destructor by topical application” (npj Drug Discovery, 2026).

For data set [1] the following is noted: cited from earlier work. From the text: (§1) A possible alternative solution for control of V. destructor is venom-derived acaricidal peptides. Venomous arachnids such as spiders and scorpions prey on arthropods, including other arachnids[17]–[19]. It is therefore unsurprising that the wide-spectrum insecticidal spider-venom peptide ω-hexatoxin-Hv1a (hereafter Hv1a) is also acaricidal. […] It therefore seems plausible that within the venoms of >53,000 extant spider[23] and >2,800 extant scorpion species, each comprising hundreds to thousands of p ...

Data set [2] relates to honeybees. The following applies: cited from earlier work.
Description: as §1

Data set [3] has as its system mammals. The following applies: cited from earlier work.
Description: as §1

The test system of data set [4] is V. destructor mites. Briefly: Topical application of synthetic peptides and oxalic acid to V. destructor mites. In kind it is in vivo, Varroa destructor. The following applies: 3% oxalic acid, positive control. On the procedure: An outline of the project discovery pipeline is presented in Supplementary Fig. 1. To identify varroacidal venom peptides, we screened venoms for activity against V. destructor by topical application. Topical tests were performed in several stages. First, whole venom was tested to determine mortality for V. destructor. Hit venoms were then subjected to several fractionation steps to isolate the active compounds. For the initial venom screen, a panel of 50 arthropod venoms (Table 1) were topically applied to V. destructor mites. Venoms were dissolved in 90% acetonitrile (v/v), and a 10 μg venom aliquot was applied per mite (n = 5 mites per venom). The dorsal plate of V. destructor mites (average mass 0.38 mg) was fixed to adhesive tape (ScotchTM 666 3 M; 19 × 32.9 mm, double sided) on microscope slides (ground edges 90° frosted end, 76 × 26 mm). A Nanoject II (Automatic Injector with Glass Capillaries, Drummond Cat.No. 3-000-205 A) was used for topical application of venom and control (90% acetonitrile) solutions. To accelerate solvent evaporation, the total volume of 483 nL was applied in seven aliquots of 69 nL each to the ventral plate of the mites between the posterior pair of legs. Each drop was allowed to dry before applying the next one, with the entire application procedure taking up to 1 h. Mite mortality was determined at various time intervals up to 48 h after the treatment using an Olympus stereomicroscope (SZX10/SZX2 Series). Initially, each mite was examined for movements of the legs, and immobile mites were stimulated with the tip of a wooden toothpick. Detection of static electricity by the mites, a few millimetres before the actual contact with the toothpick, was usually sufficient to trigger movement in mites that were still alive. […] At the later stage of the project, the slides with mites were placed into a self-constructed automated video monitoring system (using a USB camera) that employs an algorithm in OpenCV to subtract images from subsequent frames enabling the detection of changes in pixel intensity due to movements, for example of the extremities. Leg movements were stimulated with an air current applied over the mites at the time of image acquisition to determine mite mortality. The percentage of mite mortality for each venom was calculated at 2, 6 and 24 h, and adjusted by correcting for the mortality of the corresponding control group receiving only 90% acetonitrile.
The same procedure initially used for identifying varroacidal venoms was used for testing the topical activity of sHt1a and sGg1a. The peptides were dissolved in 0.5% Silwet L-77 (v/v), a silicone-based surfactant that is commonly used as a spreading agent for foliar sprays. 0.48 μg of peptide was topically applied to each mite, with n = 5 mites per treatment group. The activity of the sHt1a was confirmed using three cohorts of n = 5 mites, whereas the activity of sGg1a was confirmed using four cohorts of n = 5 mites. As a negative control, an equal volume of 0.5% Silwet (v/v) was topically applied (four cohorts of n = 5 mites), and 3% oxalic acid, a known varroacide used in commercial products[10] was used as positive control (eight cohorts of n = 5 mites). Mite mortality was recorded at 2-hourly intervals between 0 and 48 h after the treatment. For statistical analysis, mite survival data were plotted in Prism 10.0 (GraphPad Software, CA, USA), then a two-way ANOVA followed by Dunnett’s multiple comparisons test was performed, comparing the peptide and oxalic acid treatment against the respective 0.5% Silwet (v/v) control group data.

Turning to ω-hexatoxin-Hv1a, the acaricidal activity result in data set [1] is given as “acaricidal”. Also, in data set [2], the activity against honeybees result was “inactive”. The activity against mammals entry in data set [3] is “inactive”.

On to `O=C(O)C(=O)O` [oxalic acid, reference compound], for which the “time to significant mortality” value in data set [4] (eight cohorts of n = 5 mites) turned out to be 2 h. Besides, the “survival of V. destructor” value in data set [4] (vs 0.5% Silwet group, two-way ANOVA, Dunnett) is “significantly reduced V. destructor survival”.
